Key:
[1] = Administration of CTG06-06 and methocarbamol to rats, LC-MS/MS of urine for parent drug and conjugates; format: in vivo; settings: rat urine
Description: Differentiation in drug conjugation reactions. […] […] Conjugation is a phase II metabolism reaction in which an acid, for example, glucuronic acid, acts as a conjugating agent to link to a phase I metabolite covalently. The conjugate so formed would be excreted to urine. To most drugs, this is a necessary detoxicating process. As for methocarbamol, this could be a disadvantage because the acid directly forms a conjugate with the drug itself, not its metabolite, and thus, to reduce drug plasma concentration level immediately after administration. This is due to the presence of an OH group in the chemical structure of methocarbamol, which readily allows it to form conjugates with an acid. To inhibit this pathway, CTG06-06 was designed with the OH group replaced by a fluorine (F). This modification is anticipated to slow the drug elimination rate while maintaining a consistently high drug plasma concentration.
Example 3: Co-Administration of CTG06-06 and Methocarbamol (1:1) to Rats and LC-MS/MS Analysis of Rat Urine Samples
Rat urine samples were collected after an oral dose of CTG06-06 and methocarbamol at 1:1 ratio (0.5 mg/kg each).

[2] = Co-administration of methocarbamol and CTG06-05 in rats, plasma time-concentration curves; format: in vivo, rat
Description: Differentiation in drug toxicity profiles. Methocarbamol and CTG06-05 were co-administered in rats and plasma samples were collected at various timepoints. […] This indicates a distinct toxicity profile for CTG06-05 compared to methocarbamol, particularly when the toxicity is driven by Cmax. Cmax is the maximum (or peak) plasma concentration that a drug achieves in a specified compartment or test area of the body after the drug has been administered.
Differentiation in drug distribution volumes. Concentration ratios of CTG06-05 to methocarbamol in rat plasma samples from the aforementioned experiment were determined. […] Drug distribution volume (Vd) is defined as the total amount of drug in the body divided by its concentration in plasma. Vd reflects the degree to which the drug is present in extravascular tissues rather than in the plasma. Therefore, when the total amount of drug is the same, for example, 1:1 co-administration, drug plasma concentration is a direct parameter in Vd comparison. In other words, the higher the concentration, the lower the Vd.

[3] = Co-incubation of methocarbamol and CTG06-05 in rat liver microsomes (1/1); format: in vitro ADME; settings: co-incubated 1/1, FIG. 1
Description: Differentiation in drug elimination half-lives. […] The elimination half-life (T1/2) is the time it takes for the elimination processes to reduce the concentration level or the amount of drug in the system by 50%. Elimination half-life is a composite pharmacokinetic parameter determined by both clearance and volume of distribution (Vd). Elimination half-life is increased by an increase in volume of distribution or a decrease in clearance, and vice versa.
Preparation of Reaction Mixture: The microsome reaction mixtures were prepared as follows: for a total volume of 285 μL of reaction mixture, 274.5 μL of 1×PBS, 3 μL of the test compound, and 7.5 μL of 5 mg/mL microsomes were added. As a negative control, microsome-free samples were prepared by substituting the microsome solution in the reaction mixture with an equal volume of 1×Phosphate Buffer Solution (pH 7.4). The reaction mixture was prepared in triplicates. In addition, dextromethorphan was used in this assay as a positive control.
Incubation and Processing of Reaction: The reaction mixture was initiated by adding 10 μL of NADPH and incubated in a water bath at 37° C. […]
LC-MS/MS analysis: Reversed-phase liquid chromatographic separation was carried out using ACE 3 C18 column (50×2.1 mm id, 3 μm). […] Compounds were monitored in positive mode over a five-minute acquisition period using a triple quadrupole mass spectrometer. […]

[4] = IV co-administration of CTG06-05 and methocarbamol (1:1) to mice, plasma concentrations by LC-MS/MS; format: in vivo; settings: mouse plasma, 1/1 co-administration, IV 0.5 mg/kg each, FIG. 2
Protocol: Example 2: Co-Administration of CTG06-05 and Methocarbamol (1:1) to Mice and LC-MS/MS Analysis of Mouse Plasma Samples
Mouse plasma samples were collected at intervals of 2, 7, 10, 15, 30, 45, and 60 minutes after an IV dose of CTG06-05 and methocarbamol at a 1:1 ratio (0.5 mg/kg each). Plasma samples were extracted via protein precipitation. The supernatant at each time point was transferred to a clean vial and analyzed by LC-MS/MS as described in Example 1.

liver = settings: in vivo; cited from earlier work
[5] = oral; cited from earlier work
[6] = tested on: skeletal muscle contractility or motor nerve fiber; settings: cited from earlier work

COc1ccccc1OCC(F)COC(N)=O (stereo not drawn) [CTG06-06]
drug conjugation reaction ([1]; separate administration (FIG. 4 legend)): eliminates the drug conjugation reaction in rats

[2H]c1c([2H])c([2H])c(OC([2H])([2H])[2H])c(OCC(O)COC(N)=O)c1[2H] (stereo not drawn) [CTG06-05]
drug distribution volume (Vd) compared to methocarbamol ([2]; inferred from plasma concentrations after 1:1 co-administration): lower Vd value than methocarbamol
initial concentration in plasma compared to methocarbamol ([2]; rat plasma, co-administered, FIG. 2): lower than that of methocarbamol
concentration ratio of CTG06-05 to methocarbamol in plasma ([2]; rat plasma, co-administered, FIG. 3): increased with time
later concentration in plasma compared to methocarbamol ([2]; rat plasma, co-administered, later timepoints, FIG. 2): eventually exceeded that of methocarbamol
drug elimination half-life compared to methocarbamol [3]: longer drug elimination half-life compared to methocarbamol
C0 compared to methocarbamol [4]: lower C0
T1/2 compared to methocarbamol [4]: longer T1/2

COc1ccccc1OCC(O)COC(N)=O (stereo not drawn) [methocarbamol]
liver toxicity (liver): No liver toxicity is observed
time to peak plasma concentration [5]: two
conjugates of the drug in urine ([1]; co-administered, oral 0.5 mg/kg each, LC-MS/MS, FIG. 4): methocarbamol and its conjugates were detected
direct effect on skeletal muscle contractility or motor nerve fiber [6]: no direct effect
